How the values were obtained:
PPAR-γ = target: T1, PPAR-γ (Homo sapiens, UniProt P37231); assay: PPAR-γ ELISA Assay in HeLa cells (in vitro PPAR-γ assay); assay type: cell-based; details: 50 μg/mL; for activation at 50 µg/mL: Table 2; for % Activation PPAR-γ: Table 4
T1 construct: endogenous in cells; host or cells: HeLa
T1 sequence (P37231 1-505): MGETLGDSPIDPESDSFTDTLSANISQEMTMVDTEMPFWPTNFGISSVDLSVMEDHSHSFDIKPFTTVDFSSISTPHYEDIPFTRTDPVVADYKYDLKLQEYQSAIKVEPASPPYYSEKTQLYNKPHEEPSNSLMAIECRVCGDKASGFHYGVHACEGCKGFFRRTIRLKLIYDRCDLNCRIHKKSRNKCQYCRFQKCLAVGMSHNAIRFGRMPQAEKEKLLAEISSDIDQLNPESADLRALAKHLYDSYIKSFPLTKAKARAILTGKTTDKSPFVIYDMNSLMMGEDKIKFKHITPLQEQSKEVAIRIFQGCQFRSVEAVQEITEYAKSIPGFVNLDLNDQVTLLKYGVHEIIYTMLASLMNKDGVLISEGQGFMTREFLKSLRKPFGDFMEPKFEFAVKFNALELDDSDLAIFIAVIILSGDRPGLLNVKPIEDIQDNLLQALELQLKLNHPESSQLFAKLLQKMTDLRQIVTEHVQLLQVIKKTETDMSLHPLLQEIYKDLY
Description: In addition to the Western blot, the diverse library was also screened in the in vitro PPAR-γ assay. […] The compounds were tested at 50 μg/mL according to the protocol detailed in section 3.2.3.

HbA1C = assay: Diabetic zebrafish Western blot, HbA1C expression; assay type: in vivo; details: diabetic zebrafish, 10 μM, library screen, FIG. 2 / FIG. 11
Description: (§1) Alloxan-induced diabetic zebrafish were treated with compounds for immunoblot to validate the newly developed animal model, determine the antidiabetic potential of natural product leads, evaluate glucose metabolism, and discover possible mechanisms of action.
(§2) At 72 hpf, naturally dechorionated zebrafish were sorted into a 24-well microplate with 10 fish per well. Type 2 diabetes was induced with the diabetogenic agent alloxan at a dose of 0.5 mg/mL in system water for 3 hours. […] After 3 hours of treatment with natural product samples, 10 mg/mL D-glucose was administered in system water for 30 minutes, followed by 1 hour in fresh system water to metabolize the glucose and natural product leads. Upon completion of the 4-phase treatment cycle, zebrafish treatment groups were snap frozen into individual microcentrifuge tubes on dry ice, stored overnight at −80° C., thawed, homogenized with 2 μL PBS per animal, and centrifuged at 4° C. for 1 hour at 17,000 rpm. Protein content of homogenate supernatant was determined using the Pierce BCA Protein Assay kit (Pierce Biotechnology) and bovine serum albumin (BSA) standard curve. Absorbance of protein solutions from zebrafish homogenates and serial dilutions of the BSA standard were measured at 544 nm, using a FLUOstar Optima plate reader (BMG Labtechnologies GmbH, Inc.). Homogenates were analyzed by Western blot. Equal amounts of protein (20 μg) were combined with 4× lithium dodecyl sulphate (LDS) loading buffer (NuPAGE, Life Technologies, Carlsbad, CA, USA), brought to volume (15 μL) with PBS, and heated to 95° C. for 5 minutes. Proteins were resolved using NuPAGE Bis-Tris 4-12% gradient sodium dodecyl sulfate polyacrylamide gel electrophoresis (SDS-PAGE) gels together with SeeBlue Plus2 Pre-Stained Standard Ladder (Life Technologies).
(§3) Electrophoresis was performed using NuPAGE MES SDS Running Buffer and XCell SureLock Mini-Cell Electrophoresis System (Life Technologies). Separated proteins were transferred from the gel to a polyvinylidene fluoride (PVDF) membrane using tris buffered saline with Tween-20 (TBST) buffer. The blots were blocked in 3% BSA in TBST and subsequently probed using primary antibodies (1:1000 in 1% BSA in TBST) against each target overnight (Table 1). The secondary, horseradish peroxidase (HRP) conjugated antibodies (1:2000) were obtained from Santa Cruz Biotechnology Inc., (Santa Cruz, CA, USA). Conjugated antibodies were detected using SuperSignal West Femto chemiluminescent substrate from Pierce Biotechnology. Western blots were visualized, and images captured using a luminometer and LumiAnalyst 3.0 software (Boehringer-Mannheim, Mannheim, Germany). Band density was quantified for proteins of interest using ImageJ Gel Analysis.
(§4) In the case of duplicate blots, the band density results were expressed in bar graphs as the mean±standard error of the mean (SEM) of two independent experiments. Due to the labor- and time-intensive aspect of Western blot analysis with multiple target proteins, a maximum of two independent immunoblot experiments were performed per compared sample set. […] Additionally, treatment groups were also evaluated versus the diabetic, untreated control group for significance by Student's f-test and indicated in the bar graphs with p values represented by *p<0.05, **p<0.01, and ***p<0.001. […]

NFκB p65 = assay: Diabetic zebrafish Western blot, NFκB expression; assay type: in vivo; details: diabetic zebrafish, 10 μM, FIG. 5
Description: as §1, §2, §3, §4

GLUT-4 = assay: Diabetic zebrafish Western blot, GLUT-4 expression; assay type: in vivo; details: 10 μM, FIG. 5
Description: as §1
At 72 hpf, naturally dechorionated zebrafish were sorted into a 24-well microplate with 10 fish per well. Type 2 diabetes was induced with the diabetogenic agent alloxan at a dose of 0.5 mg/mL in system water for 3 hours. The incubation solution was changed to 0.01% DMSO in system water with compounds at concentrations of 20 μg/mL or […], respectively. After 3 hours of treatment with natural product samples, 10 mg/mL D-glucose was administered in system water for 30 minutes, followed by 1 hour in fresh system water to metabolize the glucose and natural product leads. Upon completion of the 4-phase treatment cycle, zebrafish treatment groups were snap frozen into individual microcentrifuge tubes on dry ice, stored overnight at −80° C., thawed, homogenized with 2 μL PBS per animal, and centrifuged at 4° C. for 1 hour at 17,000 rpm. Protein content of homogenate supernatant was determined using the Pierce BCA Protein Assay kit (Pierce Biotechnology) and bovine serum albumin (BSA) standard curve. Absorbance of protein solutions from zebrafish homogenates and serial dilutions of the BSA standard were measured at 544 nm, using a FLUOstar Optima plate reader (BMG Labtechnologies GmbH, Inc.). Homogenates were analyzed by Western blot. Equal amounts of protein (20 μg) were combined with 4× lithium dodecyl sulphate (LDS) loading buffer (NuPAGE, Life Technologies, Carlsbad, CA, USA), brought to volume (15 μL) with PBS, and heated to 95° C. for 5 minutes. […]
Electrophoresis was performed using NuPAGE MES SDS Running Buffer and XCell SureLock Mini-Cell Electrophoresis System (Life Technologies). […] Conjugated antibodies were detected using SuperSignal West Femto chemiluminescent substrate from Pierce Biotechnology. […] Band density was quantified for proteins of interest using ImageJ Gel Analysis. […]

PEPCK = assay: Diabetic zebrafish Western blot, PEPCK expression; assay type: in vivo; details: 10 μM, library screen, FIG. 4 / FIG. 11
Description: as §1
At 72 hpf, naturally dechorionated zebrafish were sorted into a 24-well microplate with 10 fish per well. Type 2 diabetes was induced with the diabetogenic agent alloxan at a dose of 0.5 mg/mL in system water for 3 hours. The incubation solution was changed to 0.01% DMSO in system water with compounds at concentrations of 20 μg/mL or […], respectively. After 3 hours of treatment with natural product samples, 10 mg/mL D-glucose was administered in system water for 30 minutes, followed by 1 hour in fresh system water to metabolize the glucose and natural product leads. Upon completion of the 4-phase treatment cycle, zebrafish treatment groups were snap frozen into individual microcentrifuge tubes on dry ice, stored overnight at −80° C., thawed, homogenized with 2 μL PBS per animal, and centrifuged at 4° C. for 1 hour at 17,000 rpm. Protein content of homogenate supernatant was determined using the Pierce BCA Protein Assay kit (Pierce Biotechnology) and bovine serum albumin (BSA) standard curve. Absorbance of protein solutions from zebrafish homogenates and serial dilutions of the BSA standard were measured at 544 nm, using a FLUOstar Optima plate reader (BMG Labtechnologies GmbH, Inc.). Homogenates were analyzed by Western blot. Equal amounts of protein (20 μg) were combined with 4× lithium dodecyl sulphate (LDS) loading buffer (NuPAGE, Life Technologies, Carlsbad, CA, USA), brought to volume (15 μL) with PBS, and heated to 95° C. for 5 minutes. Proteins were resolved using NuPAGE Bis-Tris 4-12% gradient sodium dodecyl sulfate polyacrylamide gel electrophoresis (SDS-PAGE) gels together with SeeBlue Plus2 Pre-Stained Standard Ladder (Life Technologies).
as §3, with “Western blots were visualized, and images captured using a luminometer and LumiAnalyst 3.0 software (Boehringer-Mannheim, Mannheim, Germany).” left out, “Analysis. […]” for “Analysis.”

Oc1cccc(CCc2ccc3c(c2)OCO3)c1 [Compound 16]
activation at 50 µg/mL (PPAR-γ): 0%

COc1ccc(-c2cc(=O)c3c(O)cc(O)cc3o2)cc1 [Compound 17]
activation at 50 µg/mL (PPAR-γ): 0%

COc1cc(O)c2c(c1)OC(c1ccc(O)cc1)CC2=O (stereo not drawn) [Compound 19]
activation at 50 µg/mL (PPAR-γ): 77% | HbA1C expression (Western blot band density) (HbA1C): lowest glycated hemoglobin levels

O=c1cc(-c2ccc(O)cc2)oc2c([C@H]3OC(CO)[C@@H](O)[C@H](O)C3O)c(O)cc(O)c12 (stereo partly drawn) [Compound 21]
activation at 50 µg/mL (PPAR-γ): 57% | HbA1C expression (Western blot band density) (HbA1C): lowest glycated hemoglobin levels

COc1cc(O[C@@H]2OC(CO)[C@H](O)[C@H](O)C2O)c2c(-c3ccc(O)c(O)c3)cc(=O)oc2c1 (stereo partly drawn) [Compound 22]
NFκB expression (Western blot) (NFκB p65): excellent inhibition of NFκB expression | activation at 50 µg/mL (PPAR-γ): 21% | % Activation PPAR-γ (PPAR-γ): 21% | GLUT-4 expression (Western blot) (GLUT-4): strong GLUT-4 expression | PEPCK expression (Western blot band density) (PEPCK): 31>rosiglitazone>22>23 and greatest PEPCK expression

COc1cc(O[C@@H]2OC(CO)[C@@H](O)[C@H](O)C2O)c2c(-c3ccc(O)c(O)c3)cc(=O)oc2c1 (stereo partly drawn) [Compound 23]
NFκB expression (Western blot) (NFκB p65): excellent inhibition of NFκB expression | activation at 50 µg/mL (PPAR-γ): 145% | % Activation PPAR-γ (PPAR-γ): 145% | PPAR-γ activity in the in vitro assay (in words) (PPAR-γ; versus positive control rosiglitazone): top performers | GLUT-4 expression (Western blot) (GLUT-4): strong GLUT-4 expression | PEPCK expression (Western blot band density) (PEPCK): 31>rosiglitazone>22>23

CC(C)(O)CCC(=O)[C@](C)(O)[C@H]1[C@H](O)C[C@@]2(C)C3CC=C4[C@@H](CC(O)[C@H](O[C@@H]5OC(CO)[C@@H](O)[C@H](O)C5O)C4(C)C)C3C(=O)C[C@@]12C (stereo partly drawn) [Compound 27]
activation at 50 µg/mL (PPAR-γ): 65%

C[C@]12C[C@@H](O)CC3(CCC4[C@@](C)(CCC[C@@]4(C)C(=O)O[C@@H]4OC(CO)[C@@H](O[C@@H]5OC[C@H](O)[C@H](O)C5O)[C@H](O)C4O)C3C(=O)O1)C2 (stereo partly drawn) [Compound 28]
activation at 50 µg/mL (PPAR-γ): 0%

C=C1CC[C@H]2C(=C)CC[C@H]3C(=C)C(=O)O[C@@H]3[C@@H]12 [Compound 29]
activation at 50 µg/mL (PPAR-γ): 0%

C/C=C/C1=CC=C/C(=C2/C(=O)CCNC2=O)O1 [Compound 30]
activation at 50 µg/mL (PPAR-γ): 37%
